Data on one compound can be found in patent US6943190B2, “Method of using pyruvate and/or its derivatives for the treatment of cytokine-mediated inflammatory conditions” (University of Pittsburgh-of the Commonwealth System of …, priority 2001, dated 2005).

The assay has as its system NF-B. The experiment in a line: LPS-induced NF-kB activation in RAW264.7 cells (EMSA). Particulars: EMSA at 15 minutes and 4 hours after LPS. In kind it is cell-based, murine. As to the method:
Cell Culture. BALB/c murine macrophage-like RAW 264.7 cells obtained from the American Type Culture Collection (ATCC Number TIB-71, ATCC, Rockville, Mass.) (61), were cultured in RPMI 1640 (Life Technologies, Grand Island, N.Y.) supplemented with 10% heat inactivated fetal bovine serum (Gemini, Calabasas, Calif.), 2 mM glutamine (Cat. # 25030-149, Gibco BRL, Rockville, Mass.) and antibiotic-antimycotic mix (Cat. # 15240-062, Gibco BRL, Rockville, Mass.) in a humidified incubator with 5% CO2. Cells were mechanically removed and resuspended in serum-free Opti-MEM I medium (Life Technology, Grand Island, N.Y.) to perform experiments at 75% confluence.
Nuclear extract preparation. The day before use, cells were plated at a density of 1×10^6 per well in 6 well tissue culture plates. After stimulation at indicated times, cells were removed from the incubator and place on ice immediately. Cells were washed once with 2 ml phosphate buffered saline (PBS) then harvested in 1 ml of PBS containing 2% FBS using rubber scrapper. […] The supernatant was transferred to a new tube, protein concentration was determined using a commercially available Bradford assay (Bio-Rad Protein Assay, Hercules, Calif.). […]
On the technique in general: A gel shift assay detects complexes by their altered migration in electrophoresis.

For `CCOC(=O)C(C)=O` [ethyl pyruvate], the “LPS-induced activation of NF-B” value is recorded as “significantly prevented LPS-induced activation of NF-B signaling in a concentration dependent fashion”.
